Laboratory results published in patent US9187435B2, “Bridged Spiro[2.4]heptane ester derivatives” (Actelion Pharmaceuticals Ltd., priority 2010, dated 2015).
Counter-ions that a name gives are not always drawn.

These compounds were tested against T1, human ALX receptor (Homo sapiens, UniProt P25090) (assay: Intracellular calcium measurements (FLIPR) in HEK293-hALXR-Gα16 cells, agonistic activity). Conditions: values normalized to WKYMVm 10 nM.
T1 construct: expressed in transfected cells; host or cells: HEK293 (HEK293-hALXR-Gα16)
T1 sequence (P25090 1-351): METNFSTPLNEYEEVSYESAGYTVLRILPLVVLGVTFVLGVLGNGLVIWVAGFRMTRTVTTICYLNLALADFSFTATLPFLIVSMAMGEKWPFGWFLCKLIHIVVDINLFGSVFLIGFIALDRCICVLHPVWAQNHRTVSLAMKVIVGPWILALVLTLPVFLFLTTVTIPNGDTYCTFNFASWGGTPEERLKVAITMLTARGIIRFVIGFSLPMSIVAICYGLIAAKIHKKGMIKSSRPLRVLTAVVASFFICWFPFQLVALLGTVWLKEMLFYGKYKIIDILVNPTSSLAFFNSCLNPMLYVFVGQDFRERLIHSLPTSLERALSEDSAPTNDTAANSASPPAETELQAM
Assay type: cell-based
Protocol: The ALX receptor and FPRL2 agonistic activities of the compounds of formula (I) are determined in accordance with the following experimental method.
Intracellular Calcium Measurements:
Cells expressing recombinant human ALX receptor and the G-protein Gα16 (HEK293-hALXR-Gα16) were grown to 80% confluency in Growing Medium (GM). Cells were detached from culture dishes with a cell dissociation buffer (Invitrogen, 13151-014), and collected by centrifugation at 1,000 rpm at rt for 5 min in Assay Buffer (AB) (equal parts of Hank's BSS (Gibco, 14065-049) and DMEM without Phenol Red (Gibco, 11880-028)). After 60 min incubation at 37° C. under 5% CO2 in AB supplemented with 1 μM Fluo-4 (AM) (Invitrogen, F14202), and 20 mM HEPES (Gibco, 15630-056), the cells were washed and resuspended in AB. They were then seeded onto 384-well FLIPR assay plates (Greiner, 781091) at 50,000 cells in 70 μl per well and sedimented by centrifugation at 1,000 rpm for 1 min. Stock solutions of test compounds were made up at a concentration of 10 mM in DMSO, and serially diluted in AB to concentrations required for activation dose response curves. WKYMVm (Phoenix Peptides) was used as a reference agonist. FLIPR384 or FLIPR Tetra instruments (Molecular Devices) were operated according to the manufacturer's standard instructions, adding 4 μl of test compound dissolved at 10 mM in DMSO and diluted prior to the experiment in assay buffer to obtain the desired final concentration. Changes in fluorescence were monitored before and after the addition of test compounds at lex=488 nm and lem=540 nm. Emission peak values above base level after compounds addition were exported after base line subtraction. Values were normalized to high-level control (WKYMVm compound, 10 nM final concentration) after subtraction of the base line value (AB addition).

SMILES | EC50
O=C(OCC1CCCNC1)[C@H]1[C@H](C(=O)Nc2ccc(Br)nc2)[C@@H]2CC[C@H]1C21CC1 (stereo partly drawn) [Example 12, (1S,2R,3R,4R)-[Piperidin-3-ylmethyl 2-((6-bromopyridin-3-yl)carbamoyl)spiro[bicyclo[2.2.1]heptane-7,1′-cyclopropane]-3-carboxylate]hydrochloride] | 15.5 nM
O=C(OCCN1CCNCC1)[C@H]1[C@H](C(=O)Nc2ccc(Br)nc2)[C@@H]2CC[C@H]1C21CC1 [Example 37, (1S,2R,3R,4R)-[2-(piperazin-1-yl)ethyl 2-((6-bromopyridin-3-yl)carbamoyl)spiro[bicyclo[2.2.1]heptane-7,1′-cyclopropane]-3-carboxylate]dihydrochloride] | 1.4 nM
CN1CCC(OC(=O)[C@H]2[C@H](C(=O)Nc3ccc(Br)nc3)[C@@H]3CC[C@H]2C32CC2)C1 (stereo partly drawn) [Example 14, (1S,2R,3R,4R)-[1-Methylpyrrolidin-3-yl 2-((6-bromopyridin-3-yl)carbamoyl)spiro[bicyclo[2.2.1]heptane-7,1′-cyclopropane]-3-carboxylate]] | 25.8 nM
O=C(OCCOCCN1CC[C@H](F)C1)[C@H]1[C@H](C(=O)Nc2ccc(Br)nc2)[C@@H]2CC[C@H]1C21CC1 [Example 48, (1S,2R,3R,4R)-[(S)-2-(2-(3-Fluoropyrrolidin-1-yl)ethoxy)ethyl 2-((6-bromopyridin-3-yl)carbamoyl)spiro[bicyclo[2.2.1]heptane-7,1′-cyclopropane]-3-carboxylate]] | 9.9 nM
O=C(Nc1ccc(Br)cc1)C1C(C(=O)OCC2CCNCC2)C2C=CC1C21CC1 [Example 35, (1R,4S,5R,6R)-[Piperidin-4-ylmethyl 5-((4-bromophenyl)carbamoyl)spiro[bicyclo[2.2.1]hept[2]ene-7,1′-cyclopropane]-6-carboxylate]] | 2.9 nM
Cc1cc(CNC(=O)[C@H]2[C@H](C(=O)OCC3CCCNC3)[C@H]3CC[C@@H]2C32CC2)no1 (stereo partly drawn) [Example 18, (1S,2R,3R,4R)-[Piperidin-3-ylmethyl 2-(((5-methylisoxazol-3-yl)methyl)carbamoyl)spiro[bicyclo[2.2.1]heptane-7,1′-cyclopropane]-3-carboxylate]hydrochloride] | 87.7 nM
O=C(OCCC1CCNCC1)[C@H]1[C@H](C(=O)Nc2ccc(Br)nc2)[C@@H]2CC[C@H]1C21CC1 [Example 36, (1S,2R,3R,4R)-[2-(Piperidin-4-yl)ethyl 2-((6-bromopyridin-3-yl)carbamoyl)spiro[bicyclo[2.2.1]heptane-7,1′-cyclopropane]-3-carboxylate]hydrochloride] | 0.4 nM
O=C(OC1CCNCC1)[C@H]1[C@H](C(=O)Nc2ccc(Br)nc2)[C@@H]2CC[C@H]1C21CC1 [Example 2, (1S,2R,3R,4R)-[Piperidin-4-yl 2-((6-bromopyridin-3-yl)carbamoyl)spiro[bicyclo[2.2.1]heptane-7,1′-cyclopropane]-3-carboxylate]] | 15.1 nM
O=C(OCC1CCNCC1)[C@H]1[C@H](C(=O)NCc2ccc(Br)cc2F)[C@@H]2CC[C@H]1C21CC1 [Example 4, (1S,2R,3R,4R)-[Piperidin-4-ylmethyl 2-((4-bromo-2-fluorobenzyl)carbamoyl)spiro[bicyclo[2.2.1]heptane-7,1′-cyclopropane]-3-carboxylate]hydrochloride] | 52.1 nM
Cc1cc(CNC(=O)[C@H]2[C@H](C(=O)OCC(C)C)[C@H]3CC[C@@H]2C32CC2)no1 [Example 28, (1S,2R,3R,4R)-[Isobutyl 2-(((5-methylisoxazol-3-yl)methyl)carbamoyl)spiro[bicyclo[2.2.1]heptane-7,1′-cyclopropane]-3-carboxylate]] | 734 nM
CN(C)CCCOC(=O)[C@H]1[C@H](C(=O)Nc2ccc(Br)nc2)[C@@H]2CC[C@H]1C21CC1 [Example 21, (1S,2R,3R,4R)-[1-Dimethylaminoprop-3-yl 2-((6-bromopyridin-3-yl)carbamoyl)spiro[bicyclo[2.2.1]heptane-7,1′-cyclopropane]-3-carboxylate]] | 146 nM
CN1CCCCC1COC(=O)[C@H]1[C@H](C(=O)Nc2ccc(Br)nc2)[C@@H]2CC[C@H]1C21CC1 (stereo partly drawn) [Example 22, (1S,2R,3R,4R)-[1-Methyl-piperidin-2-ylmethyl 2-((6-bromopyridin-3-yl)carbamoyl)spiro[bicyclo[2.2.1]heptane-7,1′-cyclopropane]-3-carboxylate]] | 217 nM

Continued, values first:

EC50 | SMILES
50.1 nM | Cc1cc(CNC(=O)[C@H]2[C@H](C(=O)OC3CCNCC3(F)F)[C@H]3CC[C@@H]2C32CC2)on1 (stereo partly drawn) [Example 61, (1S,2R,3R,4R)-[(3,3-Difluoro-piperidin-4-yl) 2-(((3-methylisoxazol-5-yl)methyl)carbamoyl)spiro[bicyclo[2.2.1]heptane-7,1′-cyclopropane]-3-carboxylate]]
43.4 nM | O=C(OC1CCNCC1)[C@H]1[C@H](C(=O)NCc2ccc(Br)cc2F)[C@@H]2CC[C@H]1C21CC1 [Example 60, (1S,2R,3R,4R)-[Piperidin-4-yl 2-((4-bromo-2-fluorobenzyl)carbamoyl)spiro[bicyclo[2.2.1]heptane-7,1′-cyclopropane]-3-carboxylate]]
11.5 nM | Cc1cc(CNC(=O)[C@H]2[C@H](C(=O)OCC3CCNCC3)[C@H]3CC[C@@H]2C32CC2)on1 [Example 52, (1S,2R,3R,4R)-[(Piperidin-4-yl)methyl 2-(((3-methylisoxazol-5-yl)methyl)carbamoyl)spiro[bicyclo[2.2.1]heptane-7,1′-cyclopropane]-3-carboxylate]]
280 nM | O=C(O[C@H]1CCNC[C@H]1F)[C@H]1[C@H](C(=O)Nc2ccc(Br)nc2)[C@@H]2CC[C@H]1C21CC1 (relative stereo) [Example 74, (1S,2R,3R,4R)-[cis-3-Fluoro-piperidin-4-yl 2-((6-bromopyridin-3-yl)carbamoyl)spiro[bicyclo[2.2.1]heptane-7,1′-cyclopropane]-3-carboxylate]]
11.3 nM | Cc1cc(CNC(=O)[C@H]2[C@H](C(=O)OCC3(F)CCNCC3)[C@H]3CC[C@@H]2C32CC2)on1 [Example 51, (1S,2R,3R,4R)-[(4-Fluoro-piperidin-4-yl)methyl 2-(((3-methylisoxazol-5-yl)methyl)carbamoyl)spiro[bicyclo[2.2.1]heptane-7,1′-cyclopropane]-3-carboxylate]]
403 nM | O=C(OCCOCCN1CCC(F)(F)C1)[C@H]1[C@H](C(=O)Nc2ccc(Br)nc2)[C@@H]2CC[C@H]1C21CC1 [Example 75, (1S,2R,3R,4R)-[2-(2-(3,3-Difluoropyrrolidin-1-yl)ethoxy)ethyl 2-((6-bromopyridin-3-yl)carbamoyl)spiro[bicyclo[2.2.1]heptane-7,1′-cyclopropane]-3-carboxylate]]
33.4 nM | O=C(O[C@@H]1CCNC[C@H]1F)[C@H]1[C@H](C(=O)Nc2ccc(Br)nc2)[C@@H]2CC[C@H]1C21CC1 (relative stereo) [Example 57, (1S,2R,3R,4R)-[(trans-3-Fluoro-piperidin-4-yl) 2-((6-bromopyridin-3-yl)carbamoyl)spiro[bicyclo[2.2.1]heptane-7,1′-cyclopropane]-3-carboxylate]]
10.4 nM | Cc1cc(CNC(=O)[C@H]2[C@H](C(=O)OCCC3(F)CCNCC3)[C@H]3CC[C@@H]2C32CC2)on1 [Example 49, (1S,2R,3R,4R)-[2-(4-Fluoro-piperidin-4-yl)ethyl 2-(((3-methylisoxazol-5-yl)methyl)carbamoyl)spiro[bicyclo[2.2.1]heptane-7,1′-cyclopropane]-3-carboxylate]]
